Laboratory results: US20240309015A1, “Methods for the Treatment of Fibrotic Disease” (SHY Therapeutics, LLC, priority 2021, published 2024)

Experiments:
KRas G12D mutant = assay: Ras GTP Binding Domain Inhibition Assay, KRas G12D mutant; details: at 20 μM; for KRas G12D mutant + SOS: % inh.: with SOS; for KRas G12D mutant: % inh.: without SOS
Description: (§1) A Ras Superfamily Activity Assay (as disclosed in International Application No. PCT/US2018/038613, filed Jun. 20, 2018, which is incorporated by reference in its entirety) was used as a specific assay to evaluate compounds against the following for the following Ras Superfamily proteins: KRas wild type, KRas Q61H mutant, KRas G12C mutant, KRas G12D mutant, Rac-1, and Rho-A.
(§2) Buffer-I: • 25 mM Tris-HCl, pH 7.4 • 27 mM KCl • 137 mM NaCl • 1 mM MgCl2 • 1 mM DTT
(§3) Buffer-IL: • 50 mM Tris-HCl, pH 7.0 • 1 mM MgCl2 • 1 mM DTT
(§4) The small GTPases proteins: KRas wild type. KRas Q61H mutant, KRas G12C mutant, KRas G12D mutants, Rac-1, and Rho-A were expressed as His-tagged proteins. In addition, the Guanosine nucleotide Exchange Factor (GEF) Sos protein (residues 556-1049) was expressed as a His-tagged protein. In cells, the guanine nucleotide exchange factor Sos protein promotes activation of Ras proteins by stimulating an exchange of GDP for GTP. The inclusion of Sos to the Ras GTP binding domain inhibition assay may be considered as an alternative representation of physiological cellular conditions for evaluating the inhibitory activity of some of the tested small molecules.
(§5) For the assay, all purified small GTPases proteins were diluted in Buffer-I or Buffer-II to a final concentration of 10-30 μg/mL. 200 μL of each diluted protein was added to a nickel-coated 96-well plate and incubated overnight at 4° C. Then the protein solution was discarded and 200 μL of Buffer-I or Buffer-II was added to each well in the presence of 1% DMSO. Compounds to be tested were added to the protein-coated wells at final concentration of 20 μM, and incubated for 3 hours at room temperature with and without 10-30 μg/mL of Sos added to the final hour of the incubation. When performing IC50 measurements a serial dilution of all tested concentrations was added. Then Cy3-GTP or Cy5-GTP was added to each well to a final concentration of 100 nM. The labeled GTP was incubated for 45 minutes at room temperature. Following GTP incubation, wells were washed 3× in Buffer-I or Buffer-II and 200 μL of Buffer-I or Buffer-II was added to each well. Following washes, the amount of bound labeled-GTP was measured using a SpectraMax M3 (Molecular Devices).

Rho-A = assay: Ras GTP Binding Domain Inhibition Assay, Rho-A; details: at 20 μM; for Rho-A + SOS: % inh.: with SOS; for Rho-A: % inh.: without SOS
Description: as §1, §2, §3, §4, §5

KRas G12C mutant = assay: Ras GTP Binding Domain Inhibition Assay, KRas G12C mutant; details: at 20 μM; for KRas G12C mutant + SOS: % inh.: with SOS; for KRas G12C mutant: % inh.: without SOS
Description: as §1, §2, §3, §4, §5

KRas wild type = assay: Ras GTP Binding Domain Inhibition Assay, KRas wild type; details: at 20 μM; for KRas wild type + SOS: % inh.: with SOS; for KRas wild type: % inh.: without SOS
Description: as §1, §2, §3, §4, §5

| Compound | KRas G12D mutant + SOS: % inh. (KRas G12D mutant; Table 7) | KRas G12D mutant + SOS: % inh. (KRas G12D mutant; Table 8) | KRas G12D mutant: % inh. (KRas G12D mutant; Table 7) | KRas G12D mutant: % inh. (KRas G12D mutant; Table 8) | Rho-A + SOS: % inh. (Rho-A) | Rho-A: % inh. (Rho-A) | KRas G12C mutant + SOS: % inh. (KRas G12C mutant) | KRas G12C mutant: % inh. (KRas G12C mutant) | KRas wild type + SOS: % inh. (KRas wild type) | KRas wild type: % inh. (KRas wild type) |
| --- | --- | --- | --- | --- | --- | --- | --- | --- | --- | --- |
| CO[C@@H]1CC[C@H](Nc2nc(-c3nccn3C)nc3sc(-c4ccn(C(C)C)n4)c(-c4ccccc4)c23)C1 [Compound 11, 6-(1-Isopropyl-1H-pyrazol-3-yl)-N-((1S,3R)-3-methoxycyclopentyl)-2-(1-methyl-1H-imidazol-2-yl)-5-phenylthieno[2,3-d]pyrimidin-4-amine] | C (C = 46-75% inhibition) | C (C = 46-75% inhibition) | C (C = 46-75% inhibition) | C (C = 46-75% inhibition) | B (B = 26-45% inhibition) | B (B = 26-45% inhibition) | D (D = 76-100% inhibition) | C (C = 46-75% inhibition) | D (D = 76-100% inhibition) | C (C = 46-75% inhibition) |
| COCCn1ccnc1-c1nc(N[C@H]2C[C@@H](OC)C2)c2c(-c3ccccc3)c(-c3ccn(C)n3)sc2n1 [Compound 13, N-((1s,3s)-3-methoxycyclobutyl)-2-(1-(2-methoxyethyl)-1H-imidazol-2-yl)-6-(1-methyl-1H-pyrazol-3-yl)-5-phenylthieno[2,3-d]pyrimidin-4-amine] | D (D = 76-100% inhibition) | D (D = 76-100% inhibition) | C (C = 46-75% inhibition) | C (C = 46-75% inhibition) | D (D = 76-100% inhibition) | D (D = 76-100% inhibition) | D (D = 76-100% inhibition) | D (D = 76-100% inhibition) | D (D = 76-100% inhibition) | D (D = 76-100% inhibition) |
| CO[C@H]1CC[C@@H](Nc2nc(-c3nccn3C)nc3sc(-c4ccn(C(C)C)n4)c(C)c23)C1 (racemic) [Compound 12, rac-6-(1-Isopropyl-1H-pyrazol-3-yl)-N-((1R,3S)-3-methoxycyclopentyl)-5-methyl-2-(1-methyl-1H-imidazol-2-yl)thieno[2,3-d]pyrimidin-4-amine] | C (C = 46-75% inhibition) | C (C = 46-75% inhibition) | C (C = 46-75% inhibition) | C (C = 46-75% inhibition) | D (D = 76-100% inhibition) | D (D = 76-100% inhibition) | D (D = 76-100% inhibition) | C (C = 46-75% inhibition) | D (D = 76-100% inhibition) | D (D = 76-100% inhibition) |
| COCCNc1nc(-c2cn(C)cn2)nc2sc(-c3cccc(OC)c3Cl)c(-c3ccc(OC)cc3)c12 [Compound 8, 6-(2-Chloro-3-methoxyphenyl)-N-(2-methoxyethyl)-5-(4-methoxyphenyl)-2-(1-methyl-1H-imidazol-4-yl)thieno[2,3-d]pyrimidin-4-amine] | B (B = 26-45% inhibition) | B (B = 26-45% inhibition) | B (B = 26-45% inhibition) | B (B = 26-45% inhibition) | C (C = 46-75% inhibition) | C (C = 46-75% inhibition) | D (D = 76-100% inhibition) | B (B = 26-45% inhibition) | D (D = 76-100% inhibition) | C (C = 46-75% inhibition) |

The remaining lines, values ahead:

| KRas G12D mutant + SOS: % inh. (KRas G12D mutant; Table 7) | KRas G12D mutant + SOS: % inh. (KRas G12D mutant; Table 8) | KRas G12D mutant: % inh. (KRas G12D mutant; Table 7) | KRas G12D mutant: % inh. (KRas G12D mutant; Table 8) | Rho-A + SOS: % inh. (Rho-A) | Rho-A: % inh. (Rho-A) | KRas G12C mutant + SOS: % inh. (KRas G12C mutant) | KRas G12C mutant: % inh. (KRas G12C mutant) | KRas wild type + SOS: % inh. (KRas wild type) | KRas wild type: % inh. (KRas wild type) | Compound |
| --- | --- | --- | --- | --- | --- | --- | --- | --- | --- | --- |
| A (A = 1-25% inhibition) | A (A = 1-25% inhibition) | C (C = 46-75% inhibition) | C (C = 46-75% inhibition) |  | C (C = 46-75% inhibition) |  | C (C = 46-75% inhibition) | A (A = 1-25% inhibition) | C (C = 46-75% inhibition) | COCCCNc1nc(-c2nccn2C)nc2sc(-c3ccccc3)c(-c3ccccc3)c12 [Compound 3, N-(3-Methoxypropyl)-2-(1-methyl-1H-imidazol-2-yl)-5,6-diphenylthieno[2,3-d]pyrimidin-4-amine] |
| B (B = 26-45% inhibition) | B (B = 26-45% inhibition) | B (B = 26-45% inhibition) | B (B = 26-45% inhibition) | 0 (0 = 0% inhibition) | 0 (0 = 0% inhibition) | C (C = 46-75% inhibition) | B (B = 26-45% inhibition) | B (B = 26-45% inhibition) | 0 (0 = 0% inhibition) | COC1CCN(c2nc(-c3nccn3C)nc3sc(-c4ccn(C)n4)c(-c4ccccc4)c23)CC1 [Compound 6, 4-(4-Methoxypiperidin-1-yl)-2-(1-methyl-1H-imidazol-2-yl)-6-(1-methyl-1H-pyrazol-3-yl)-5-phenylthieno[2,3-d]pyrimidine] |
| A (A = 1-25% inhibition) | A (A = 1-25% inhibition) | D (D = 76-100% inhibition) | D (D = 76-100% inhibition) |  | C (C = 46-75% inhibition) |  | C (C = 46-75% inhibition) | A (A = 1-25% inhibition) | A (A = 1-25% inhibition) | COCCNc1nc(-c2nccn2C)nc2sc(-c3ccccc3)c(-c3ccccc3)c12 [Compound 1, N-(2-Methoxyethyl)-2-(1-methyl-1H-imidazol-2-yl)-5,6-diphenylthieno[2,3-d]pyrimidin-4-amine] |
|  |  | B (B = 26-45% inhibition) | B (B = 26-45% inhibition) |  | B (B = 26-45% inhibition) |  | B (B = 26-45% inhibition) |  | A (A = 1-25% inhibition) | COCCNc1nc(-c2nccn2C)nc2sc(-c3ccccc3)c(-c3ccccc3Cl)c12 [Compound 4, 5-(2-Chlorophenyl)-N-(2-methoxyethyl)-2-(1-methyl-1H-imidazol-2-yl)-6-phenylthieno[2,3-d]pyrimidin-4-amine] |
| C (C = 46-75% inhibition) | C (C = 46-75% inhibition) | D (D = 76-100% inhibition) | D (D = 76-100% inhibition) | D (D = 76-100% inhibition) | D (D = 76-100% inhibition) | C (C = 46-75% inhibition) | D (D = 76-100% inhibition) | C (C = 46-75% inhibition) | C (C = 46-75% inhibition) | COc1cccc(-c2sc3nc(-c4nccn4C)nc(NC4CCC(OC)C4)c3c2C)c1F (racemic) [Compound 10, rac-6-(2-Fluoro-3-methoxyphenyl)-N-((1R,3S)-3-methoxycyclopentyl)-5-methyl-2-(1-methyl-1H-imidazol-2-yl)thieno[2,3-d]pyrimidin-4-amine and rac-6-(2-Fluoro-3-methoxyphenyl)-N-((1R,3R)-3-methoxycyclopentyl)-5-methyl-2-(1-methyl-1H-imidazol-2-yl)thieno[2,3-d]pyrimidin-4-amine] |
